Source: ChEMBL document CHEMBL5678807, “A selective jumonji H3K27 demethylase inhibitor modulates the proinflammatory macrophage response” (Nature, 2012)

Experiments:
Macrophage [1] = assay: Antiinflammatory activity in human primary macrophages assessed as effect on LPS-induced IL11 gene expression at 30 uM measured after 2 hrs by RT-PCR array (reference value: 6 a.u.); format: functional
Macrophage [2] = assay: Antiinflammatory activity in human primary macrophages assessed as effect on LPS-induced TGFB3 gene expression at 30 uM measured after 2 hrs by RT-PCR array (reference value: 524 a.u.); format: functional
Macrophage [3] = assay: Antiinflammatory activity in human primary macrophages assessed as effect on LPS-induced NODAL gene expression at 30 uM measured after 2 hrs by RT-PCR array (reference value: 125 a.u.); format: functional
Macrophage [4] = assay: Antiinflammatory activity in human primary macrophages assessed as effect on LPS-induced IL1F9 gene expression at 30 uM measured after 2 hrs by RT-PCR array (reference value: 5170 a.u.); format: functional
Macrophage [5] = assay: Antiinflammatory activity in human primary macrophages assessed as effect on LPS-induced IL1F7 gene expression at 30 uM measured after 2 hrs by RT-PCR array (reference value: 192 a.u.); format: functional
Macrophage [6] = assay: Antiinflammatory activity in human primary macrophages assessed as effect on LPS-induced TNFSF8 gene expression at 30 uM measured after 2 hrs by RT-PCR array (reference value: 248127 a.u.); format: functional
Macrophage [7] = assay: Antiinflammatory activity in human primary macrophages assessed as effect on LPS-induced TNFSF10 gene expression at 30 uM measured after 2 hrs by RT-PCR array (reference value: 221027 a.u.); format: functional
Macrophage [8] = assay: Antiinflammatory activity in human primary macrophages assessed as effect on LPS-induced TXLNA gene expression at 30 uM measured after 2 hrs by RT-PCR array (reference value: 8115 a.u.); format: functional
Macrophage [9] = assay: Antiinflammatory activity in human primary macrophages assessed as effect on LPS-induced GAPDH gene expression at 30 uM measured after 2 hrs by RT-PCR array (reference value: 1352294 a.u.); format: functional
Macrophage [10] = assay: Antiinflammatory activity in human primary macrophages assessed as effect on LPS-induced TNFRSF11B gene expression at 30 uM measured after 2 hrs by RT-PCR array (reference value: 1609 a.u.); format: functional
Macrophage [11] = assay: Antiinflammatory activity in human primary macrophages assessed as effect on LPS-induced IL1F6 gene expression at 30 uM measured after 2 hrs by RT-PCR array (reference value: 145 a.u.); format: functional
Mu-type opioid receptor = Mu-type opioid receptor (Homo sapiens, UniProt P35372); assay: Antagonist activity at human OPRM-1 by SPA; format: functional
[12] = Antagonist activity at human NR1A/NR2B by intracellular Ca fluorescence assay; format: cell-based
[13] = target: Sodium channel protein type 5 subunit alpha (Homo sapiens, UniProt Q14524); assay: Blockade of human NaV1.5 by electrophysiology assay
Histone deacetylase 1 = Histone deacetylase 1 (Homo sapiens, UniProt Q13547); assay: Inhibition of human HDAC1 by FLINT assay
[14] = target: T1, 5-hydroxytryptamine receptor 2C (Homo sapiens, UniProt P28335); assay: Agonist activity at human 5-HT2C by intracellular Ca luminescence assay; format: functional, cell-based
T1 sequence (P28335 whole entry): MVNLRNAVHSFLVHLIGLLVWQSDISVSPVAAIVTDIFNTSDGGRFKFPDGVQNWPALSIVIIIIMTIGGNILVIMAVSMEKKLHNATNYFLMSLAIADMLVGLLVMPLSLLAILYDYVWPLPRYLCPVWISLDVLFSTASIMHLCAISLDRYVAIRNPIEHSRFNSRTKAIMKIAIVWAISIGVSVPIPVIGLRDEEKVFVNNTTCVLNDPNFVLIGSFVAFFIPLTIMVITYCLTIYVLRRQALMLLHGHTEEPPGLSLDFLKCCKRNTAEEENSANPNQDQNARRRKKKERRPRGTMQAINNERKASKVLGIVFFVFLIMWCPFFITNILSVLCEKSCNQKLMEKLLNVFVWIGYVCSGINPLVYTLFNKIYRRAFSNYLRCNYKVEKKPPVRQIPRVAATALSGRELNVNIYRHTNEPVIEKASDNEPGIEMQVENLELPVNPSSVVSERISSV

[15] = target: Polyamine deacetylase HDAC10 (Homo sapiens, UniProt Q969S8); assay: Inhibition of human HDAC10 by FLINT assay
Histone deacetylase 9 = Histone deacetylase 9 (Homo sapiens, UniProt Q9UKV0); assay: Inhibition of human HDAC9 by FLINT assay
[16] = target: Protein deacetylase HDAC6 (Homo sapiens, UniProt Q9UBN7); assay: Inhibition of human HDAC6 by FLINT assay
[17] = target: T2, Muscarinic acetylcholine receptor M2 (Homo sapiens, UniProt P08172); assay: Agonist activity at human CHRM2 by intracellular Ca fluorescence assay; format: functional, cell-based
T2 sequence (P08172 whole entry): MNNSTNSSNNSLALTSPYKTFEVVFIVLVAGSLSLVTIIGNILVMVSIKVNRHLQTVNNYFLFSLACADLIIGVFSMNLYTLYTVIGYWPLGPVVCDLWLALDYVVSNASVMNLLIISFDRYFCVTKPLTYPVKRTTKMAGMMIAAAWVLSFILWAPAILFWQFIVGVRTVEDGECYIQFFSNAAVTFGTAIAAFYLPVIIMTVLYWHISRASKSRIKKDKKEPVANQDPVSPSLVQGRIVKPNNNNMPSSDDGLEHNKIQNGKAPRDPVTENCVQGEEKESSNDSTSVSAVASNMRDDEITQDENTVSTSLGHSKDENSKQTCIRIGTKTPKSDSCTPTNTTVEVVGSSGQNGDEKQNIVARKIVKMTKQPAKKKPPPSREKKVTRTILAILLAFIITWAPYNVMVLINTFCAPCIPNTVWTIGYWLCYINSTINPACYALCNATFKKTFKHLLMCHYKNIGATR

[18] = target: T2, Muscarinic acetylcholine receptor M2; assay: Antagonist activity at human CHRM2 by intracellular Ca fluorescence assay; format: functional, cell-based
[19] = target: 3',5'-cyclic-AMP phosphodiesterase 4B (Homo sapiens, UniProt Q07343); assay: Inhibition of human PDE4B by luminescence assay
[20] = target: Voltage-gated potassium channel, IKs; KCNQ1(Kv7.1)/KCNE1(MinK) (Homo sapiens, UniProt P51787+P15382); assay: Blockade of human KCNQ1/KCNE1 by electrophysiology assay; format: protein-complex assay
[21] = Antagonist activity at human 5-HT3 by intracellular Ca fluorescence assay; format: cell-based
D(2) dopamine receptor = D(2) dopamine receptor (Homo sapiens, UniProt P14416); assay: Agonist activity at human dopamine 2 by SPA; format: functional
[22] = target: Sodium-dependent noradrenaline transporter (Homo sapiens, UniProt P23975); assay: Binding affinity to human NET by SPA
Prolyl hydroxylase EGLN3 = Prolyl hydroxylase EGLN3 (Homo sapiens, UniProt Q9H6Z9); assay: Inhibition of human EGLN3 by TR-FRET assay
[23] = target: Acetylcholine receptor subunit alpha (Homo sapiens, UniProt P02708); assay: Antagonist activity at human alpha 1 nAChR by intracellular Ca fluorescence assay; format: cell-based
Cannabinoid receptor 2 = Cannabinoid receptor 2 (Homo sapiens, UniProt P34972); assay: Agonist activity at human cannabinoid CB2 receptor by Yeast FDGlu assay; format: functional
Cannabinoid receptor 2, sequence (P34972 whole entry): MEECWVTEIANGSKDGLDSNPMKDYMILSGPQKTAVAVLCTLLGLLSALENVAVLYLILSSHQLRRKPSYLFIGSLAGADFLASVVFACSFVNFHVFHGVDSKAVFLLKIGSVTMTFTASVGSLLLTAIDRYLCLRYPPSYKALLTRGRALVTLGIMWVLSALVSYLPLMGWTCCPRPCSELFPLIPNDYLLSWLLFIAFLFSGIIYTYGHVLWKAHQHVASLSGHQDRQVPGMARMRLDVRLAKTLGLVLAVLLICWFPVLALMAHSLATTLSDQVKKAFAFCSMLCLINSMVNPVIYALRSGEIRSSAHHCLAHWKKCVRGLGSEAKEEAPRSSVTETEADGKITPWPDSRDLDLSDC

Mu-type opioid receptor, sequence (P35372 whole entry): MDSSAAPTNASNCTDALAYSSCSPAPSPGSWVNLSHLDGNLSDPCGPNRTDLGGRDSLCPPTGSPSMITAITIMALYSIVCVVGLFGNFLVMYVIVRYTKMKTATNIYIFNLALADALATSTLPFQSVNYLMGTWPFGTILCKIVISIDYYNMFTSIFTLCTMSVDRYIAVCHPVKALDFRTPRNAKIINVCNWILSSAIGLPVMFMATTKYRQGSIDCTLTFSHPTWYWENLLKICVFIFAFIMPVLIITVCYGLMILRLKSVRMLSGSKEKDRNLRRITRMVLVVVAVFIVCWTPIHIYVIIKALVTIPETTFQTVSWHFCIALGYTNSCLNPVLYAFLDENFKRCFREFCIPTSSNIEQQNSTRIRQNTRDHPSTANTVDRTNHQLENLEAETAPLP
D(2) dopamine receptor, sequence (P14416 whole entry): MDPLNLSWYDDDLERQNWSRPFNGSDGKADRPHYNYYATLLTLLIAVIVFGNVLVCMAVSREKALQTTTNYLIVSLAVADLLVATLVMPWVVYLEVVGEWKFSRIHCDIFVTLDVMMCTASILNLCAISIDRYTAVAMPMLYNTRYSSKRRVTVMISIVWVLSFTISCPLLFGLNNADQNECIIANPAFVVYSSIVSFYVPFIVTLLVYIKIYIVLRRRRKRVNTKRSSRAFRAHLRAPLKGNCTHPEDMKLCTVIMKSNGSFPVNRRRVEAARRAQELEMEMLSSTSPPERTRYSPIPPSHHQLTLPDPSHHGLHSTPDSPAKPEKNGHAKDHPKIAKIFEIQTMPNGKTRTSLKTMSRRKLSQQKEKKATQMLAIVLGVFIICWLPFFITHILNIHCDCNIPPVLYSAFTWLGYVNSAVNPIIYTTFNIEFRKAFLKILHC
Prolyl hydroxylase EGLN3, sequence (Q9H6Z9 whole entry): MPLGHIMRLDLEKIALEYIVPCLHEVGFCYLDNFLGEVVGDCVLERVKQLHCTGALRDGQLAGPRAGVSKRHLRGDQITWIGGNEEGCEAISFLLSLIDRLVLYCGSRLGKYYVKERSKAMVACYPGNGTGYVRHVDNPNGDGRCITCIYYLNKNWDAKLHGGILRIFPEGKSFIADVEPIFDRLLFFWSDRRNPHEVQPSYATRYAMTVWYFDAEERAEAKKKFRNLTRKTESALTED
Protein deacetylase HDAC6, sequence (Q9UBN7 whole entry): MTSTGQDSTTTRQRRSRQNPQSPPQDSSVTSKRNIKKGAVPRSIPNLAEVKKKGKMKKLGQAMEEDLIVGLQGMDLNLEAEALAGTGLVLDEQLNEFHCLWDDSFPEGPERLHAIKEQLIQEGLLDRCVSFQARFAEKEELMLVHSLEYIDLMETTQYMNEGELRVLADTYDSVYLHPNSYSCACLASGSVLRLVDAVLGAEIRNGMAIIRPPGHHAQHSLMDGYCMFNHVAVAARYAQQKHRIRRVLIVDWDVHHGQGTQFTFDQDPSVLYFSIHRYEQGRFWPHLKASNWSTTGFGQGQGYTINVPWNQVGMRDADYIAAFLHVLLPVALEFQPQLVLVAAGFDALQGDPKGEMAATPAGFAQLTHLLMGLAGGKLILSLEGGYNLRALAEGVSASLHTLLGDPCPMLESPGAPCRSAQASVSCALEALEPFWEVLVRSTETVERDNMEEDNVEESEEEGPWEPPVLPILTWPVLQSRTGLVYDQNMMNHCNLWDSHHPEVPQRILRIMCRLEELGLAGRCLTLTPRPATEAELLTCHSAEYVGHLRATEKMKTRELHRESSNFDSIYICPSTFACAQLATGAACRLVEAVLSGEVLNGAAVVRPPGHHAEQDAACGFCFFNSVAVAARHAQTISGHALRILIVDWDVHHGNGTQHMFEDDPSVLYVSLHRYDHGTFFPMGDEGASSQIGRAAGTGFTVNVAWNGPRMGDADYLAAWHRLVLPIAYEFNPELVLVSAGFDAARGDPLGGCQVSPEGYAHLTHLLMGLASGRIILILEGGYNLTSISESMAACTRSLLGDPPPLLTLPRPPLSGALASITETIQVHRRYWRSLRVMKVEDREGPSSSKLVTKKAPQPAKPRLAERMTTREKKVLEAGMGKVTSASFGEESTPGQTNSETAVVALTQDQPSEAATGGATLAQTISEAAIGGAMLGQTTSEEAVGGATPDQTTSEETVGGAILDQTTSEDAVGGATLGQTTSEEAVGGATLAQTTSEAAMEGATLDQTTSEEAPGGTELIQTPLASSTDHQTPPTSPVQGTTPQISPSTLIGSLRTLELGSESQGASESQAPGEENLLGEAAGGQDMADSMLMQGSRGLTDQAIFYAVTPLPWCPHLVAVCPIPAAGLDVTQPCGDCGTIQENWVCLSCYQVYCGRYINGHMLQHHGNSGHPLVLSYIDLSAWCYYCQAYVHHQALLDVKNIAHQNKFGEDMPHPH
Voltage-gated potassium channel, IKs; KCNQ1(Kv7.1)/KCNE1(MinK), sequence (P51787 whole entry): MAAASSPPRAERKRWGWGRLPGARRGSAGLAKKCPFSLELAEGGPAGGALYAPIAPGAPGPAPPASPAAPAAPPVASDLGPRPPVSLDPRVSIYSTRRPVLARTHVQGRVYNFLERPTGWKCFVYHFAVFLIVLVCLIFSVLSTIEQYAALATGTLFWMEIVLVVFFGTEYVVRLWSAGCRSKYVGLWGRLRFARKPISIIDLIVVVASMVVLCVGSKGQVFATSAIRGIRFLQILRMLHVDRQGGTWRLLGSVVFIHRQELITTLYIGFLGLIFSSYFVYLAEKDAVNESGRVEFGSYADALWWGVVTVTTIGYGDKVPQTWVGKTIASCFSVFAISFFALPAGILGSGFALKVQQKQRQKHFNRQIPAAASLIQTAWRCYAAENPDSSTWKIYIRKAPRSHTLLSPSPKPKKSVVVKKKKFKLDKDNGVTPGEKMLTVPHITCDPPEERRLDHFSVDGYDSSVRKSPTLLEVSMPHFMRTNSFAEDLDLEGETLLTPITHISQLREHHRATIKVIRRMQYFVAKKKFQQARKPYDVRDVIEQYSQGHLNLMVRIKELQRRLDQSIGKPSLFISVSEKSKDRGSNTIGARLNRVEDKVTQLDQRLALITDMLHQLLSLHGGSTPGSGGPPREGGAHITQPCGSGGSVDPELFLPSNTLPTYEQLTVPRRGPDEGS
Acetylcholine receptor subunit alpha, sequence (P02708 whole entry): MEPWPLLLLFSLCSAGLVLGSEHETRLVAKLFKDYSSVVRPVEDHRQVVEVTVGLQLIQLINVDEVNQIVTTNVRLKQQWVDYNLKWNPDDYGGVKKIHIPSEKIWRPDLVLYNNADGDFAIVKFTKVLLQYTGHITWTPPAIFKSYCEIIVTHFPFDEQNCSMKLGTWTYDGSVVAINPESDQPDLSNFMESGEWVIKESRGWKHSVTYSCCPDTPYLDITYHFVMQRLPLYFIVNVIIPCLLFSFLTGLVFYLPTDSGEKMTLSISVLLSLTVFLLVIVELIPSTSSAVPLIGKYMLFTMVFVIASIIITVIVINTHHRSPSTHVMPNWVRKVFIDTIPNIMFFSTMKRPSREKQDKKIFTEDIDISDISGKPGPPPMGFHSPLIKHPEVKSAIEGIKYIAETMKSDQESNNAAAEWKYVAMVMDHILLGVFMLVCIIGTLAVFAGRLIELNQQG
Histone deacetylase 1, sequence (Q13547 whole entry): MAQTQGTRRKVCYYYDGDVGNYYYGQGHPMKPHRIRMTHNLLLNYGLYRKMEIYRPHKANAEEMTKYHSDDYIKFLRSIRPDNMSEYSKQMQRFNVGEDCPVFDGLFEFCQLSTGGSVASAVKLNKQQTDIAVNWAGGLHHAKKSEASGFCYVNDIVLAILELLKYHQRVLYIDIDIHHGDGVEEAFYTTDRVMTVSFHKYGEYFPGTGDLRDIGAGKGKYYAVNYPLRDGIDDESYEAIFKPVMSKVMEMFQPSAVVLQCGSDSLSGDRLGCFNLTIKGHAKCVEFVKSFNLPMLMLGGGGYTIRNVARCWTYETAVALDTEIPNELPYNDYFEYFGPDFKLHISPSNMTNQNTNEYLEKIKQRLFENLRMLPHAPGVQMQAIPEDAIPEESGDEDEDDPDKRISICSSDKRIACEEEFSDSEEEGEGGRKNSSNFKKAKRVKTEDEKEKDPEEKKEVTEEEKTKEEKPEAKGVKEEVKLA

Compound | Activity (Macrophage [1]) | Activity (Macrophage [2]) | Activity (Macrophage [3]) | Activity (Macrophage [4]) | Activity (Macrophage [5]) | Activity (Macrophage [6]) | Activity (Macrophage [7]) | Activity (Macrophage [8]) | Activity (Macrophage [9]) | Activity (Macrophage [10]) | Activity (Macrophage [11]) | XC50 (Mu-type opioid receptor) | XC50 [12] | XC50 [13] | XC50 (Histone deacetylase 1) | XC50 [14] | XC50 [15] | XC50 (Histone deacetylase 9) | XC50 [16] | XC50 [17] | other results
CCOC(=O)CCNc1cc(N2CCc3ccccc3CC2)nc(-c2ccccn2)n1 | 403 a.u. | 650 a.u. | 197 a.u. | 476 a.u. | 360 a.u. | 17105 a.u. | 39793 a.u. | 5959 a.u. | 1352294 a.u. | 267 a.u. | 1 a.u. |  |  |  |  |  |  |  |  |  | 
O=C(O)CCNc1cc(N2CCc3ccccc3CC2)nc(-c2ccccn2)n1 |  |  |  |  |  |  |  |  |  |  |  | 50 µM | > 50 µM | 79 µM | > 300 µM | > 40 µM | > 300 µM | > 300 µM | > 300 µM | > 16 µM | XC50 [18]: > 16 µM; XC50 [19]: 100 µM; XC50 [20]: > 25 µM; XC50 [21]: > 4.3 µM; XC50 (D(2) dopamine receptor): > 100 µM; XC50 [22]: > 100 µM; XC50 (Prolyl hydroxylase EGLN3): > 50 µM; XC50 [23]: 50 µM; XC50 (Cannabinoid receptor 2): > 32 µM
O=C(O)CCNc1cc(N2CCc3ccccc3CC2)nc(-c2cccnc2)n1 |  |  |  |  |  |  |  |  |  |  |  | 63 µM | > 50 µM | 50 µM | > 300 µM | > 40 µM | > 300 µM | > 300 µM | > 300 µM | > 16 µM | XC50 [18]: > 16 µM; XC50 [19]: 40 µM; XC50 [20]: > 25 µM; XC50 [21]: 25 µM; XC50 (D(2) dopamine receptor): > 100 µM; XC50 [22]: > 100 µM; XC50 (Prolyl hydroxylase EGLN3): > 50 µM; XC50 [23]: 16 µM; XC50 (Cannabinoid receptor 2): > 32 µM
CCOC(=O)CCNc1cc(N2CCc3ccccc3CC2)nc(-c2cccnc2)n1 | 32 a.u. | 357 a.u. | 45 a.u. | 2413 a.u. | 33 a.u. | 115933 a.u. | 132521 a.u. | 6886 a.u. | 1352294 a.u. | 784 a.u. | 121 a.u. |  |  |  |  |  |  |  |  |  | 
